One assay deals with IκBα. In words: IκB degradation in PMA-treated THP-1 cells, Western blotting. The assay is classed as cell-based, human. Conditions: 10 nM PMA. The protocol: Mock-transduced and DDR1b-overexpressing THP-1 cells were plated at 5×10^6cells/ml and treated with 10 nM PMA on collagen-coated plates for varous times. Ten million cells were lysed on ice for 20 minutes in a buffer containing 50 mM NaCl, 20 mM Tris-HCl, 50 mM sodium fluoride, 30 mM Na4P2O7, 5 mM EGTA, 3 mM sodium orthovanadate, 1% Triton X-100; 1 mg/ml leupeptin, 1 mM PMSF, 1 mg/ml aprotinin, 1 mg/ml pepstatin A and 100 μM sodium orthovanadate in […] lysates were spun and the supernatants were collected. Each sample was boiled in double-strength sample buffer for 10 minutes, electrophoresed on 10% polyacrylamide gels by SDS-PAGE, and transferred electrophoretically to nitrocellulose membranes at 150 mA for 1 hour by a semi-dry system. The membranes were incubated with mouse monoclonal anti-IκB antibody followed by sheep anti-mouse IgG coupled with horseradish peroxidase. Peroxidase activity was visualized by the Enhanced Chemiluminescence Detection System (Amersham).
For orientation: In western blotting, separated proteins are transferred to a membrane and probed.

A further assay deals with PMN. In words: MCP-1 release by PMN (neutrophils), ELISA. The assay is classed as cell-based, human. The protocol: Human PMN and peripheral blood mononuclear cells (PBMC) were obtained from heparinized blood from human donors (10 units of heparin per ml of blood). One volume of 5% dextran (T-500 Pharmacia, Piscataway, N.J.) in phosphate buffered saline (PBS) was added to three volumes of blood in 50 ml polypropylene tubes. After a 40 minute incubation at room temperature, the leukocyte-rich plasma layer was removed and overlaid onto Lymphoprep in 50 ml tubes and the tubes were centrifuged at 800×g for 20 minutes at room temperature. PMN were separated from erythrocytes by lysis in 0.2% NaCl, washed in complete medium three times at 4° C. and resuspended in complete medium. PBMC contained in the PMN preparations obtained by this method were less than 0.5% by morphologic examination. Cell viability was higher than 98% by trypan blue staining.
A panel of cytokines was previously tested for their ability to induce MCP-1 production in PMN and it was reported that TNF-α and IFN-γ could cooperate to induce a high level of MCP-1 production (Yamashiro et al., J. Leukoc. Biol. 69:698, 2001). […] The majority of MCP-1 was released between 24 hours and 48 hours, showing a delayed kinetics of MCP-1 release. […] The effect of IFN-γ was dose-dependent.
To confirm that activation of DDR1 was responsible for the increased release of MCP-1 by PMN treated with IFN-γ and collagen, 513 anti-DDR1 Ab was used instead of collagen. The concentrations of MCP-1 were measured in the Lymphokine Testing Laboratory, Clinical Services Program, SAIC-Frederick (Frederick, Md.) with an ELISA kit (R&D Systems) specific for human MCP-1.
(In general: ELISA stands for enzyme-linked immunosorbent assay.)

A further assay deals with T1, DDR1a (Homo sapiens, UniProt Q08345).
T1 construct: The full-length human DDR1a or DDR1b cDNA was ligated into the EcoRI/BamHI site of the retroviral vector pLXSN; expressed in transfected cells; host or cells: THP-1 human monocytic leukemia cells, retroviral vector pLXSN, G418-selected clones
In words: Autophosphorylation of DDR1a overexpressed in THP-1 cells. The assay is classed as cell-based. The protocol:
Using the retrovirus-infected cell lines, the effect of collagen type I on the phosphorylation of DDR1 proteins was tested. Two million cells in 3 ml complete medium were added onto collagen type I-coated plastic plates and incubated at 37° C. for various times. Cell lysates were prepared and immunoprecipitation was performed with the anti-DDR1 antibody. One-fourth of the immunoprecipitated samples was subjected to SDS-PAGE and Western blotting. The membranes were blotted with anti-pTyr and anti-DDR1 antibody. Low levels of constitutive autophosphorylation of both receptors were detected. The levels of autophosphorylation increased slightly at 15 minutes and peaked at 90 minutes after activation of the cells on collagen type I-coated plastic plates. The peak level was maintained for up to 240 minutes for DDR1a, which is consistent with the previously reported delayed kinetics of […] autophosphorylation in other cell types (Vogel FASEB J, (Suppl.), S77-S82, 1999). In contrast, autophosphorylation of DDR1b decreased after 90 minutes of collagen-activation.
Parental, mock, DDR1a- or DDR1b-overexpressing THP-1 cells were plated at 5×10^6/ml on uncoated tissue culture plates and stimulated with PMA (10 nM) for 24 hours, and then starved in RMPI 1640 without FCS for 10 hours. Subsequently cells were washed three times with PBS, and then incubated in the presence of 50 μg/ml collagen type I for various times.
Ten million cells were lysed on ice for 20 minutes in a buffer containing 50 mM NaCl, 20 mM Tris-HCl, 50 mM sodium fluoride, 30 mM Na4P2O7, 5 mM EGTA, 3 mM sodium orthovanadate, 1% Triton X-100, 1 mg/ml leupeptin, 1 mM PMSF, 1 mg/ml aprotinin, 1 mg/ml pepstatinA and 100 μM sodium orthovanadate treated with H2O2. […]
Eluted proteins were analyzed on 8% polyacrylamide gels by SDS-PAGE and transferred electrophoretically to nitrocellulose membranes at 150 mA for 1 hour by a semi-dry system. […] To detect phosphorylated or nonphosphorylated p38 MAP kinase or ATF-2, 20 μl of cell lysates were directly mixed with 20 μl of sample buffer and then analyzed.

Setting [1] is: PMA-treated cells, 50 μg/ml collagen type I.

T1 sequence (Q08345 19-876 isoform Q08345-2 limits assumed): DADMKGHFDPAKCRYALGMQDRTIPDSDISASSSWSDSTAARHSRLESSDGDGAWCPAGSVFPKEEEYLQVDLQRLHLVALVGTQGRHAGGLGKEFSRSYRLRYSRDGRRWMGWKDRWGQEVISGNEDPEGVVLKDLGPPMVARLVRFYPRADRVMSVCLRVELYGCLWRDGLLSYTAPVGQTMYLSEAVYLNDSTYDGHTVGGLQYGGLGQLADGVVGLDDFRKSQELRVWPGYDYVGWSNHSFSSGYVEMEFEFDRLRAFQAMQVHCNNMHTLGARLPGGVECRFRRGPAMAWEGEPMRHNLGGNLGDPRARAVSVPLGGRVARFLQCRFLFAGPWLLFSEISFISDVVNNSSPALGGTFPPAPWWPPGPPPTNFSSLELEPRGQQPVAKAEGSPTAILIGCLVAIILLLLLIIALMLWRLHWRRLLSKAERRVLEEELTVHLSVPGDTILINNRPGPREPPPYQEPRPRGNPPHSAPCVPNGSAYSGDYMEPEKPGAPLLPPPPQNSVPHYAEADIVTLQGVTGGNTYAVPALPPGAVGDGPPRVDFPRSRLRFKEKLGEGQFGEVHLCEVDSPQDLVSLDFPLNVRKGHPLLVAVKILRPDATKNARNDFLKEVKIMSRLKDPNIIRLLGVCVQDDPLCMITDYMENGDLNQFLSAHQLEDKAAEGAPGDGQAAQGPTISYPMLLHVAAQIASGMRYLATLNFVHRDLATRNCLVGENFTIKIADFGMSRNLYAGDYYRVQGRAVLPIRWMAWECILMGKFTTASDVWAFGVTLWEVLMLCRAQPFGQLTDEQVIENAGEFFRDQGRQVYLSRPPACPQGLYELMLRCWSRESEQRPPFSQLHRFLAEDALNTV

In the case of collagen, in the assay on IκBα (DDR1b-overexpressing cells, at 2 and 3 hours), the “amounts of IκBα” value is reported as “decreased”. In addition, the “level of IκBα” value with IκBα (mock-transduced cells) is on record as “unchanged”. For the same substance, the “effect on MCP-1 production” value is given as “no significant effect” in the assay with PMN (GM-CSF-treated PMN); “negative effect” with PMN (PMN treated with TNF-α plus IFN-γ or INF-α plus IFN-γ plus GM-CSF); “no significant effect” in the assay on PMN (PMN, no cytokine or TNF-α added). Also, the “time autophosphorylation first detected” value on DDR1a (setting [1]) was found to be 90 min. Also, the “time of peak autophosphorylation” value is 4 h on DDR1a (setting [1]) and 1.5 h at DDR1a (collagen type I-coated plates, cells not PMA-treated).

The values above are taken from patent US7855076B2, “Use of discoidin domain receptor 1 (DDR1) and agents that affect the DDR1/collagen pathway” (The United States of America as represented by the …, priority 2002, dated 2010).
